Values of other authors, collected in article PMC8847371 (Nature Communications, 2022).

Assays:
COVID-19 [1] = test system: COVID-19; set-up: method as in recent press release; conditions: early administration, high risk patients with mild to moderate symptoms; ref recent press release; cited from earlier work
COVID-19 [2] = test system: COVID-19; set-up: method as in MOVe-OUT trial (NCT04575597); conditions: phase 3, high-risk patients with mild to moderate COVID-19; ref MOVe-OUT trial (NCT04575597); cited from earlier work
SARS-CoV-2 VoC = conditions: cited from earlier work
SARS-CoV-2 = conditions: cited from earlier work

Row | SMILES | reduction of likelihood of hospitalization (COVID-19 [1]) | risk of hospitalization or death (COVID-19 [2]) | in vitro potency against the four VOC (SARS-CoV-2 VoC) | efficacy in the SARS-CoV-2 hamster infection model (SARS-CoV-2)
1 | CCC(CC)COC(=O)[C@H](C)N[P@](=O)(OC[C@H]1O[C@@](C#N)(c2ccc3c(N)ncnn23)[C@H](O)[C@@H]1O)Oc1ccccc1 [Veklury] | 87% | – | – | –
2 | CC(C)C(=O)OC[C@H]1O[C@@H](n2ccc(NO)nc2=O)[C@H](O)[C@@H]1O [Molnupiravir] | – | significant reduction | equipotent | effective
